Results as given in US20220313698A1, “MODULATORS OF CYSTIC FIBROSIS TRANSMEMBRANE CONDUCTANCE REGULATOR” (Vertex Pharmaceuticals Incorporated, priority 2019, published 2022).

What was measured:
[1] = target: T1, CFTR-mediated chloride transport (Homo sapiens, UniProt P13569); assay: Corrector Assay A - membrane potential dye assay (enteroid cells); details: for Corrector Assay A % activity: % of chloride transport of triple combination control (1 μM (14S)-dispiro macrocycle + 3 μM tezacaftor + 300 nM ivacaftor); for EC50: read-out: Corrector Assay A EC50, human intestinal enteroid cells, 18-24 h incubation, acute 10 μM forskolin + 300 nM ivacaftor
[2] = target: T1, CFTR-mediated chloride transport; assay: Corrector Assay B - membrane potential dye assay (enteroid cells); details: for Corrector Assay B % activity: % of chloride transport of triple combination control (3 μM Compound A + 3 μM tezacaftor + 300 nM ivacaftor); for EC50: read-out: Corrector Assay B EC50, human intestinal enteroid cells, 18-24 h incubation, acute 10 μM forskolin + 300 nM ivacaftor;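 as to all read-outs here: methyl oxonol membrane potential fluorescence followed over 15 min after switching to chloride-free buffer with forskolin, 100 µM IBMX and ivacaftor, in presence of CaCC blockers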
Protocol: Base medium (ADF+++) consisted of Advanced DMEM/Ham's F12, 2 mM Glutamax, 10 mM HEPES, 1 μg/ml penicillin/streptomycin.
Intestinal enteroid maintenance medium (IEMM) consisted of ADF+++, 1×B27 supplement, 1×N2 supplement, 1.25 mM N-acetyl cysteine, 10 mM Nicotinamide, 50 ng/mL hEGF, 10 nM Gastrin, 1 μg/mL hR-spondin-1, 100 ng/mL hNoggin, TGF-b type 1 inhibitor A-83-01, 100 μg/mL Primocin, 10 μM P38 MAPK inhibitor SB202190.
Bath 1 Buffer consisted of 1 mM MgCl2, 160 mM NaCl, 4.5 mM KCl, 10 mM HEPES, 10 mM Glucose, 2 mM CaCl2).
Chloride Free Buffer consisted of 1 mM Magnesium Gluconate, 2 mM Calcium Gluconate, 4.5 mM Potassium Gluconate, 160 mM Sodium Gluconate, 10 mM HEPES, 10 mM Glucose.
Bath 1 Dye Solution consisted of Bath 1 Buffer, 0.04% Pluronic F127, 20 μM Methyl Oxonol, 30 μM CaCCinh-A01, 30 μM Chicago Sky Blue.
Chloride Free Dye Solution consisted of Chloride Free Buffer, 0.04% Pluronic F127, 20 μM Methyl Oxonol, 30 μM CaCCinh-A01, 30 μM Chicago Sky Blue.
Chloride Free Dye Stimulation Solution consisted of Chloride Free Dye Solution, 10 μM forskolin, 100 μM IBMX, and 300 nM Ivacaftor.
Cells were recovered in cell recovery solution, collected by centrifugation at 650 rpm for 5 min at 4° C., resuspended in TryPLE and incubated for 5 min at 37° C. Cells were then collected by centrifugation at 650 rpm for 5 min at 4° C. and resuspended in IEMM containing 10 μM ROCK inhibitor (RI). The cell suspension was passed through a 40 μm cell strainer and resuspended at 1×10^6 cells/mL in IEMM containing 10 μM RI. Cells were seeded at 5000 cells/well into multi-well plates and incubated for overnight at 37° C., 95% humidity and 5% CO2 prior to assay.
Briefly, cells were washed 5 times in Bath 1 Buffer. Bath 1 Dye Solution was added and the cells were incubated for 25 min at room temperature. Following dye incubation, cells were washed 3 times in Chloride Free Dye Solution. Chloride transport was initiated by addition of Chloride Free Dye Stimulation Solution and the fluorescence signal was read for 15 min. The CFTR-mediated chloride transport for each condition was determined from the AUC of the fluorescence response to acute forskolin and 300 nM N-[2,4-bis(1,1-dimethylethyl)-5-hydroxyphenyl]-1,4-dihydro-4-oxoquinoline-3-carboxamide stimulation. Chloride transport was then expressed as a percentage of the chloride transport following treatment with 3 μM Compound A, 3 μM (R)-1-(2,2-difluorobenzo[d][1,3]dioxol-5-yl)-N-(1-(2,3-dihydroxypropyl)-6-fluoro-2-(1-hydroxy-2-methylpropan-2-yl)-1H-indol-5-yl)cyclopropanecarboxamide and 300 nM acute N-[2,4-bis(1,1-dimethylethyl)-5-hydroxyphenyl]-1,4-dihydro-4-oxoquinoline-3-carboxamide triple combination control (% Activity).

| SMILES | Corrector Assay A % activity [1] | EC50 [1] [nM] | Corrector Assay B % activity [2] | EC50 [2] [nM] |
| --- | --- | --- | --- | --- |
| CC1(C)CC2CC(c3ccccc3)CNc3cccc(n3)S(=O)(=O)NC(=O)c3ccc(-n4ccc(OCCC5(C(F)(F)F)CC5)n4)nc3N1C2 (single isomer, unassigned) [Compound 389, 12,12-dimethyl-16-phenyl-8-(3-{2-[1-(trifluoromethyl)cyclopropyl]ethoxy}-1H-pyrazol-1-yl)-2λ^6-thia-3,9,11,18,23-pentaazatetracyclo[17.3.1.111,14.05,10]tetracosa-1(22),5,7,9,19(23),20-hexaene-2,2,4-trione] | +++ (+++ is >60%) | < 1000 | +++ (+++ is >60%) | < 1000 |
| CC(C)(C)c1ccc2c(n1)N1C[C@@H](CCC(c3ccccn3)Nc3cccc(n3)S(=O)(=O)NC2=O)CC1(C)C (single isomer, unassigned) [Compound 292] | +++ (+++ is >60%) | < 1000 | +++ (+++ is >60%) | < 1000 |
| CC1(C)CC2CC(c3ccccc3)CNc3cccc(n3)S(=O)(=O)NC(=O)c3ccc(-n4ccc(OCCC5(C(F)(F)F)CC5)n4)nc3N1C2 (single isomer, unassigned) [Compound 392, 12,12-dimethyl-16-phenyl-8-(3-{2-[1-(trifluoromethyl)cyclopropyl]ethoxy}-1H-pyrazol-1-yl)-2λ^6-thia-3,9,11,18,23-pentaazatetracyclo[17.3.1.111,14.05,10]tetracosa-1(22),5,7,9,19(23),20-hexaene-2,2,4-trione] | – | – | ++ (++ is 30-60%) | < 1000 |
| CC(C)(C)c1ccc2c(n1)N1C[C@@H](CCC(c3ccccn3)Nc3cccc(n3)S(=O)(=O)NC2=O)CC1(C)C (single isomer, unassigned) [Compound 293] | ++ (++ is 30-60%) | < 1000 | +++ (+++ is >60%) | < 1000 |
| CC1(C)C[C@@H]2CCC(c3ccccc3)Nc3cccc(n3)S(=O)(=O)NC(=O)c3ccc(-n4ccc(OCCC5C6(CC6)C56CC6)n4)nc3N1C2 (single isomer, unassigned) [Compound 364] | +++ (+++ is >60%) | < 1000 | +++ (+++ is >60%) | – |
| CC1(C)CC2CCC(c3ccccc3)Nc3cccc(n3)S(=O)(=O)NC(=O)c3ccc(-n4ccc(OCCC5(C(F)(F)F)CC5)n4)nc3N1C2 (single isomer, unassigned) [Compound 387, 12,12-Dimethyl-17-phenyl-8-(3-{2-[1-(trifluoromethyl)cyclopropyl]ethoxy}-1H-pyrazol-1-yl)-2λ^6-thia-3,9,11,18,23-pentaazatetracyclo[17.3.1.111,14.05,10]tetracosa-1(22),5,7,9,19(23),20-hexaene-2,2,4-trione] | +++ (+++ is >60%) | < 1000 | +++ (+++ is >60%) | – |
| CC1(C)C[C@@H]2CCC(c3ccc(C(=O)O)cc3)Nc3cccc(n3)S(=O)(=O)NC(=O)c3ccc(-n4ccc(OCCC5(C(F)(F)F)CC5)n4)nc3N1C2 (single isomer, unassigned) [Compound 370] | – | – | +++ (+++ is >60%) | 1000 to 3000 |
| CC1(C)CC2CCC(c3ccccc3)Nc3cccc(n3)S(=O)(=O)NC(=O)c3ccc(-n4ccc(OCCC5(C(F)(F)F)CC5)n4)nc3N1C2 (single isomer, unassigned) [Compound 383, 12,12-Dimethyl-17-phenyl-8-(3-{2-[1-(trifluoromethyl)cyclopropyl]ethoxy}-1H-pyrazol-1-yl)-2λ^6-thia-3,9,11,18,23-pentaazatetracyclo[17.3.1.111,14.05,10]tetracosa-1(22),5,7,9,19(23),20-hexaene-2,2,4-trione] | ++ (++ is 30-60%) | < 1000 | +++ (+++ is >60%) | < 1000 |
| CC1(C)C[C@@H]2CCC(c3ccccn3)Nc3cccc(n3)S(=O)(=O)NC(=O)c3ccc(-n4ccc(OCCC5(C(F)(F)F)CC5)n4)nc3N1C2 (single isomer, unassigned) [Compound 362] | +++ (+++ is >60%) | < 1000 | +++ (+++ is >60%) | – |
| CC1(C)C[C@@H]2CCC(c3ccc(C(=O)O)cc3)Nc3cccc(n3)S(=O)(=O)NC(=O)c3ccc(-n4ccc(OCCC5(C(F)(F)F)CC5)n4)nc3N1C2 (single isomer, unassigned) [Compound 371] | – | – | +++ (+++ is >60%) | < 1000 |
| CCCC1(C)CC2CCCNc3cccc(n3)S(=O)(=O)NC(=O)c3ccc(-n4ccc(OCCC5(C(F)(F)F)CC5)n4)nc3N1C2 (single isomer, unassigned) [Compound 366, 12-methyl-12-propyl-8-(3-{2-[1-(trifluoromethyl)cyclopropyl]ethoxy}-1H-pyrazol-1-yl)-2λ^6-thia-3,9,11,18,23-pentaazatetracyclo[17.3.1.111,14.05,10]tetracosa-1(22),5,7,9,19(23),20-hexaene-2,2,4-trione] | – | – | + (+ is <30%) | – |
| CC1(C)CC2CN1c1nc(-n3ccc(OCCC4(C(F)(F)F)CC4)n3)ccc1C(=O)NS(=O)(=O)c1cccc(n1)NCCC2c1ccccc1 (single isomer, unassigned) [Compound 393, 12,12-dimethyl-15-phenyl-8-(3-{2-[1-(trifluoromethyl)cyclopropyl]ethoxy}-1H-pyrazol-1-yl)-2λ^6-thia-3,9,11,18,23-pentaazatetracyclo[17.3.1.111,14.05,10]tetracosa-1(22),5,7,9,19(23),20-hexaene-2,2,4-trione] | +++ (+++ is >60%) | < 1000 | +++ (+++ is >60%) | – |
| CN(C)C(=O)CN1CCC[C@@H]2CN(c3nc(-n4ccc(OCCC5(C(F)(F)F)CC5)n4)ccc3C(=O)NS(=O)(=O)c3cccc1n3)C(C)(C)C2 [Compound 376] | – | – | ++ (++ is 30-60%) | < 1000 |
| CCCC1(C)CC2CCCNc3cccc(n3)S(=O)(=O)NC(=O)c3ccc(-n4ccc(OCCC5(C(F)(F)F)CC5)n4)nc3N1C2 (single isomer, unassigned) [Compound 365, 12-methyl-12-propyl-8-(3-{2-[1-(trifluoromethyl)cyclopropyl]ethoxy}-1H-pyrazol-1-yl)-2λ^6-thia-3,9,11,18,23-pentaazatetracyclo[17.3.1.111,14.05,10]tetracosa-1(22),5,7,9,19(23),20-hexaene-2,2,4-trione] | – | – | + (+ is <30%) | – |
| CC1(C)C[C@@H]2CCC(c3cncnc3)Nc3cccc(n3)S(=O)(=O)NC(=O)c3ccc(-n4ccc(OCCC5(C(F)(F)F)CC5)n4)nc3N1C2 (single isomer, unassigned) [Compound 374] | – | – | +++ (+++ is >60%) | < 1000 |
| CC(C)C1CC[C@@H]2CN(c3nc(-n4ccc(OCCC5(C(F)(F)F)CC5)n4)ccc3C(=O)NS(=O)(=O)c3cccc(n3)N1)C(C)(C)C2 (single isomer, unassigned) [Compound 358] | – | – | +++ (+++ is >60%) | < 1000 |
| CC1(C)C[C@@H]2CCCN(CC3COC3)c3cccc(n3)S(=O)(=O)NC(=O)c3ccc(-n4ccc(OCCC5(C(F)(F)F)CC5)n4)nc3N1C2 [Compound 359] | – | – | +++ (+++ is >60%) | < 1000 |
| CC1(C)C[C@@H]2CCC(c3ccccc3)Nc3cccc(n3)S(=O)(=O)NC(=O)c3cccnc3N1C2 (single isomer, unassigned) [Compound 289] | – | – | +++ (+++ is >60%) | < 1000 |
| CCCC1(C)CC2CCCNc3cccc(n3)S(=O)(=O)NC(=O)c3ccc(-n4ccc(OCCC5(C(F)(F)F)CC5)n4)nc3N1C2 (single isomer, unassigned) [Compound 368, 12-methyl-12-propyl-8-(3-{2-[1-(trifluoromethyl)cyclopropyl]ethoxy}-1H-pyrazol-1-yl)-2λ^6-thia-3,9,11,18,23-pentaazatetracyclo[17.3.1.111,14.05,10]tetracosa-1(22),5,7,9,19(23),20-hexaene-2,2,4-trione] | – | – | +++ (+++ is >60%) | < 1000 |
| CC1(C)CC2CN1c1nc(-n3ccc(OCCC4(C(F)(F)F)CC4)n3)ccc1C(=O)NS(=O)(=O)c1cccc(n1)NCCC2c1ccccc1 (single isomer, unassigned) [Compound 386, 12,12-Dimethyl-15-phenyl-8-(3-{2-[1-(trifluoromethyl)cyclopropyl]ethoxy}-1H-pyrazol-1-yl)-2λ^6-thia-3,9,11,18,23-pentaazatetracyclo[17.3.1.111,14.05,10]tetracosa-1(22),5,7,9,19(23),20-hexaene-2,2,4-trione] | – | – | ++ (++ is 30-60%) | < 1000 |
| CC1(C)C[C@@H]2CCCN(CCC(N)=O)c3cccc(n3)S(=O)(=O)NC(=O)c3ccc(-n4ccc(OCCC5(C(F)(F)F)CC5)n4)nc3N1C2 [Compound 378, 3-[(14S)-12,12-Dimethyl-2,2,4-trioxo-8-(3-{2-[1-(trifluoromethyl)cyclopropyl]ethoxy}-1H-pyrazol-1-yl)-2λ^6-thia-3,9,11,18,23-pentaazatetracyclo[17.3.1.111,14.05,10]tetracosa-1(23),5(10),6,8,19,21-hexaen-18-yl]propanamide] | – | – | +++ (+++ is >60%) | < 1000 |
| CC1(C)C[C@@H]2CCCN(C[C@H](O)CO)c3cccc(n3)S(=O)(=O)NC(=O)c3ccc(-n4ccc(OCCC5(C(F)(F)F)CC5)n4)nc3N1C2 (single isomer, unassigned) [Compound 381] | – | – | +++ (+++ is >60%) | < 1000 |
| CC1(C)C[C@@H]2CCC(c3cncnc3)Nc3cccc(n3)S(=O)(=O)NC(=O)c3ccc(-n4ccc(OCCC5(C(F)(F)F)CC5)n4)nc3N1C2 (single isomer, unassigned) [Compound 375] | – | – | +++ (+++ is >60%) | < 1000 |
